Reference: patent US6638919B2, “Antiviral purine derivatives” (University College Cardiff Consultants Limited, priority 2001, dated 2003)
Read-outs that look alike come from different tables or passages of the source.

Columns and labels:
Format in all cases: cell-based
HIV-2 = assay: Inhibition of HIV-2 giant cell formation in CEM cells
Procedure: (§1) Then 100 μL of the infected cell suspension was transferred to microtiter plate wells and mixed with 100 μL of the appropriate dilutions of the test compounds.
HIV1 CEM: EC50 in μM for inhibition of […] in CEM cells.
HIV2 CEM: EC50 in μM for inhibition of HIV-2 in CEM cells

[1] = Toxicity to mock-infected CEM cells (CC50); conditions: human; for CC50 at 4 days: mock-infected CEM cells, Tables I and II, read-out: CC50/μM CEM; for CC50: Table III, toxicity to CEM cells, read-out: CC50 CEN
Procedure: as §1
(§2) CC50 CEM: CC50 in μM for toxicity to CEM cells.
(§3) CC50 CEM: CC50 μM for toxicity to CEM cells

HIV-1 = assay: Inhibition of HIV-1 giant cell formation in CEM cells
Procedure: as §1
HIV 1 CEM: EC50 in μM for inhibition of HIV1 in CEM cells

MSV [2] = assay: Inhibition of MSV; conditions: Table III; inhibition of MSV; read-out: EC50 MSV
Procedure: EC50 MSV: EC50 μM for inhibition of MSV

MSV [3] = assay: Minimum cytotoxic concentration in MSV assay; set-up: unit not given here; conditions: Table III
From the text: MCC MSV: minimum cytotoxic concentration in MSV essay.

CEM cells = assay: Toxicity to mock-infected CEM cells (CC50); conditions: Table III; toxicity to CEM cells; read-out: CC50 CEN
Procedure: as §1, §2, §3

[4] = Human immunodeficiency virus 2, CCRF-CEM, 96 h, CEM cells, giant cell formation after 4 days, Tables I and II, read-out: EC50/μM HIV-2 CEM
[5] = Human immunodeficiency virus 1, CCRF-CEM, 96 h, CEM cells, giant cell formation after 4 days, Tables I and II, read-out: EC50/μM HIV-1 CEM
[6] = Human immunodeficiency virus 2, CCRF-CEM, Table III, EC50 for inhibition of HIV-2 in CEM cells, read-out: HIV2 CBM
[7] = Human immunodeficiency virus 1, CCRF-CEM, Table III, EC50 for inhibition of HIV1 in CEM cells, read-out: HIV1 CBM
[8] = Table III, EC50 for inhibition of HIV-2 in CEM cells, read-out: HIV2 CBM
[9] = Table III, EC50 for inhibition of HIV1 in CEM cells, read-out: HIV1 CBM

Row | Compound | EC50 (HIV-2; [4]) | CC50 at 4 days [1] | EC50 (HIV-1; [5]) | EC50 (HIV-2; [6]) | EC50 (MSV [2]) | CC50 [1] | EC50 (HIV-1; [7]) | MCCMSV (MSV [3]) | EC50 (HIV-2; [8]) | CC50 (CEM cells) | EC50 (HIV-1; [9])
1 | Nc1nc2c(ncn2[C@H]2C=C[C@@H](CO)C2)c(=O)[nH]1 [(1R, 4S)-9-{4-(hydroxymethyl)-2-cyclopenten-1-yl]guanine, reference compound] | 2.3 µM | 157 µM | 2 µM |  |  |  |  |  |  |  | 
2 | CC(C)CCCOC(=O)[C@H](C)NP(=O)(OC[C@@H]1C=CC(n2cnc3c(NC4CC4)nc(N)nc32)C1)Oc1ccccc1 (stereo partly drawn) [Compound 1721, (1S,4R)-4-(2-amino-6-cyclopropylamino-9H-purin-9-y))-2-cyclopentene-1-methanol O-[phenyl (4-methyl-1-pentyloxy-L-alaninyl)phosphate] |  |  |  | 0.14 µM | 2200 nM | 12500 nM | 0.05 µM | >4 |  |  | 
3 | COC(=O)C(CC(C)C)NP(=O)(OC[C@@H]1C=CC(n2cnc3c(NC4CC4)nc(N)nc32)C1)Oc1ccccc1 (some centres unmarked) [Compound 1718] |  |  |  | 1.48 µM | 8840 nM | 22000 nM | 0.85 µM | >20 |  |  | 
4 | Nc1nc(NC2CC2)c2ncn([C@H]3C=C[C@@H](CO)C3)c2n1 [Abacavir, (1S,4R)-4-[2-anino-6-(cyclopropylamino)-9H-purin-9-yl]-2-cyclopentene-1-methanol, reference compound] | 3 µM | 78 µM | 1.9 µM |  |  |  |  |  |  |  | 
5 | COC(=O)[C@H](CCSC)NP(=O)(OC[C@@H]1C=C[C@H](n2cnc3c(NC4CC4)nc(N)nc32)C1)Oc1ccccc1 (stereo partly drawn) [Compound 1715, (1S,4R)-4-(2-amino-6-cyclopropylamino-9H-purin-9-yl)-2-cyclopentene-1-methanol O-(phenylmethoxy-L-methionyl phosphate)] |  |  |  |  | 10200 nM |  |  | >20 | 2.73 µM | 48900 nM | 1.15 µM
6 | C[C@H](NP(=O)(OC[C@@H]1C=C[C@H](n2cnc3c(NC4CC4)nc(N)nc32)C1)Oc1ccccc1)C(=O)OC(C)(C)C (stereo partly drawn) [Compound 1645, (1S,4R)-4-(2-amino-6-cyclopropylamino-9H-purin-9-yl)-2-cyclopentene-1-methanol O-(phenyl-tertbutyloxy-L-alaninyl)-phosphate] |  |  |  |  | 11700 nM |  |  | >20 | 6 µM | 33000 nM | 3.7 µM
7 | CC(C)COC(=O)[C@H](C)NP(=O)(OC[C@@H]1C=C[C@H](n2cnc3c(NC4CC4)nc(N)nc32)C1)Oc1ccccc1 (stereo partly drawn) [Compound 1672, (1S,4R)-4-(2-:amino-6-cyclopropylamino-9H-purin-9-yl-2-cyclopentene-1-methanol O-(phenyl (2-methylpropyl)oxyalaninyl phosphate)] |  |  |  |  | 1980 nM |  |  | >4 | 0.1 µM | 14400 nM | 0.09 µM
8 | CCCOC(=O)[C@H](C)NP(=O)(OC[C@@H]1C=C[C@H](n2cnc3c(NC4CC4)nc(N)nc32)C1)Oc1ccccc1 (stereo partly drawn) [Compound 1646, (1S,4R)-4-(2-amino-6-cyclopropylamino-9H-purin-9-Sl)-2-cyclopentene-1-methanol O-Phenyl-(n-propoxy-L-alaninyl)-phosphate] |  |  |  |  | 2000 nM |  |  | >4 | 0.12 µM | 9000 nM | 0.093 µM
9 | C[C@H](NP(=O)(OC[C@@H]1C=CC(n2cnc3c(NC4CC4)nc(N)nc32)C1)Oc1ccccc1)C(=O)OCC1CCCC1 (some centres unmarked) [Compound 1722] |  |  |  | 0.48 µM |  | 15200 nM | 0.13 µM |  |  |  | 
10 | C[C@H](NP(=O)(OC[C@@H]1C=C[C@H](n2cnc3c(NC4CC4)nc(N)nc32)C1)Oc1ccccc1)C(=O)OCC(C)(C)C (stereo partly drawn) [Compound 1673, (1S ,4R)-442-amino6-cyclopropylamino-9H-purin-9-y)-2-cyclopentene-1-methanol O-(phenyl (2,2-dimethylpropyl)oxyalaninyl phosphate)] |  |  |  |  | 2920 nM |  |  | >4 | 0.18 µM | 8070 nM | 0.15 µM
